Results taken from patent US12121518B2, “PARP-1 and methods of use thereof” (The Board of Supervisors of Louisiana State University and …, priority 2017, dated 2024).

Key:
[1] = tested on: steroid-resistant asthma; assay: Ovalbumin/LPS/IFNγ-based mouse model of steroid-resistant asthma; type: in vivo; settings: 5 mg/kg
Protocol: (§1) Balb/c mice were sensitized by i.p. injection of 20 μg of Ova in 2.25 mg aluminium hydroxide on days 1 and 14. Steroid resistance was induced by intranasal instillation of Lps (10 μg/mouse) on day 27. Mice were treated with s.c injection of dexmethasone (5 mg/kg) on days 29 and 30. Mice were challenged with aerosolized 1% OVA on days 28, 29, 30 for 20 minutes. Airway hyper responsiveness was measured using plesthesmography 24 hours after the last OVA challenge. Statistics are not included.
as §1, with “Balb I c” for “Balb/c”, “µg/mouse)” for “μg/mouse)”, “All mice were euthanized 48” for “Airway hyper responsiveness was measured using plesthesmography 24”, “challenge then subjected to broncholaveolar lavage. Inflammatory cells were differentiated and assessed using Diff Quick staining.” for “challenge.”
as §1, with “All mice were euthanized 48” for “Airway hyper responsiveness was measured using plesthesmography 24”, “challenge. Cytokines were measured in the collected serum and BAL fluid using multiplex assay. And IgE production was assessed busing sandwich ELISA.” for “challenge.”
Objective: To investigate whether PARP inhibition could restore steroid sensitivity to block LPS/IFN-γ-induced neutrophilia and AHR in steroid-resistant asthma model of the disease. Methods: An ovalbumin/LPS/IFNγ-based model of steroid-resistant murine asthma and an airway epithelial cell culture system were used in this study.

[2] = tested on: allograft breast cancer; settings: 50 mg/kg daily; cited from earlier work

For `O=C(c1cc(Cc2n[nH]c(=O)c3ccccc23)ccc1F)N1CCN(C(=O)C2CC2)CC1` [olaparib], the “OVA-specific IgE secretion in BALF and serum” value [1] was “marked reduction in OVA-specific IgE secretion”, the Th2 cytokine production [1] was “marked reduction in Th2 cytokine production” and the “established steroid-resistant asthma manifestation” value [1] was “reversed the established steroid-resistant asthma manifestation in mice”. For the same molecule, the “infiltration of inflammatory cells into the airways” value [1] was “blocked the infiltration of inflammatory cells into the airways” and the “effect on anti-PD1 immunotherapy” value [2] was “enhances anti-PD1 immunotherapy”.
